Experiment: DPPH radical scavenging antioxidant test
Format: biochemical
Conditions: 517 nm; for Inhibition (radical scavenging inhibition): 0.2 mL DPPH (0.75 mM), compound 3 μM in ethanol, 30 min incubation in the dark
Description: The antioxidant properties of the 8-((3-formyl-4-hydroxyphenyl)diazenyl)naphthalene-1,3-disulfonic acid were studied by adding 0.2 mL DPPH (0.75 mM)) to compound 8-((3-formyl-4-hydroxyphenyl)diazenyl)naphthalene-1,3-disulfonic acid (III) (3 μM) in ethanol. After 30 min of incubation in the dark, the absorbance was read against a blank at 517 nm. Ascorbic acid (vitamin C) was used as standard antioxidants (positive control). A blank sample was prepared by 0.2 ml of DPPH in 3 ml ethanol. A negative control sample was run using ethanol instead of the sample. The radical scavenging inhibition was calculated using the following equation: […]
The antioxidant activity for the synthesized compound is listed in Table 1, using Vitamin C as a reference.

O=Cc1cc(N=Nc2cccc3cc(S(=O)(=O)O)cc(S(=O)(=O)O)c23)ccc1O [Product III, 8-((3-formyl-4-hydroxyphenyl)diazenyl)naphthalene-1,3-disulfonic acid]
Inhibition (radical scavenging inhibition): 54%
antioxidant potential compared to vitamin C (in words) (DPPH in vitro test, vitamin C as positive control): high potential as an antioxidant compared to vitamin C

O=C1O[C@H]([C@@H](O)CO)C(O)=C1O [vit c, Ascorbic acid, reference compound]
Inhibition (radical scavenging inhibition): 74%
